Measurements: patent US20260109707A1, “HETEROBIFUNCTIONAL COMPOUNDS AND METHODS OF TREATING DISEASE” (Halda Therapeutics OpCo. Inc., priority 2022, published 2026)
Read-outs that look alike come from different tables or passages of the source.

Legend:
[1] = test system: T-Rex 293 cell line SC3 cells lacking increased expression of androgen receptor protein; experiment: Cellular growth inhibition assay, T-Rex 293 SC3 cells without doxycycline (CellTiter-Glo, 72 hours); assay type: cell-based; conditions: T-Rex 293 cell line SC3 cells not exposed to doxycycline (lacking increased androgen receptor expression)
Outline: (§1)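 Doxycycline (10 ng/mL) was either included or omitted to toggle wild-type androgen receptor expression in SC3 cells, a T-Rex 293 clone, grown in stripped-serum, phenol red-free medium. After 72 hours with compound, viable cells were quantified by CellTiter-Glo 2.0.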

[2] = test system: VCaP cells; experiment: Cellular growth inhibition assay for VCaP cells (CellTiter-Glo, 72 hours); assay type: cell-based, human
Outline: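 Luminescent viability signal after 72 h of compound exposure gave GI50 values by four-parameter nonlinear regression. Compounds were added in 0.5% DMSO to cells plated 24 h earlier at 5000/well in DMEM containing 10% FBS.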

[3] = test system: T-Rex 293 cell line SC3 cells having increased expression of androgen receptor protein due to exposure to doxycycline; experiment: Cellular growth inhibition assay, T-Rex 293 SC3 cells with doxycycline (CellTiter-Glo, 72 hours); assay type: cell-based; conditions: T-Rex 293 SC3 cells with increased androgen receptor expression due to doxycycline (10 ng/mL)
Outline: as §1

[4] = test system: T47D cells; experiment: Cellular growth inhibition assay for T47D cells (CellTiter-Glo, 72 hours); assay type: cell-based, human; conditions: 72 hours treatment
Outline: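 Cells are plated at 3000/well and allowed 24 h before treatment. Test compound in medium containing 0.5% DMSO is then added, with DMSO-only wells as negative control, and plates are incubated 72 h at 37 °C. ATP luminescence (CellTiter-Glo 2.0) is then fitted to four parameters to derive GI50.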

SMILES	GI50 ([2]; Homo sapiens, VCaP, 72 h) [nM]	GI50 ([4]; Homo sapiens, T47D, 72 h) [nM]	GI50 [2] [nM]	GI50 [4] [nM]	GI50 ([1]; 72 h) [nM]	GI50 ([3]; 72 h) [nM]	GI50 [1] [nM]	GI50 [3] [nM]
Cc1sc2c(c1C)C(c1ccc(C#CC3CC4(C3)CN(c3ccc(C(=O)N[C@H]5CC[C@H](Oc6ccc(C#N)c(Cl)c6)CC5)nn3)C4)cc1)=N[C@@H](Cc1ncco1)c1nnc(C)n1-2 [I-138]	< 500	< 500	–	–	< 500	< 500	–	–
Cc1sc2c(c1C)C(c1ccc(C#CC3CC4(CCN(c5ccc(C(=O)N[C@H]6CC[C@H](Oc7ccc(C#N)c(Cl)c7)CC6)nn5)CC4)C3)cc1)=N[C@@H](Cc1ncco1)c1nnc(C)n1-2 [I-139]	< 500	< 500	–	–	< 500	< 500	–	–
Cc1sc2c(c1C)C(c1ccc(C#CCN3[C@H](C)CN(c4ccc(C(=O)N[C@H]5CC[C@H](Oc6ccc(C#N)c(Cl)c6)CC5)nn4)C[C@@H]3C)cc1)=N[C@@H](Cc1ncco1)c1nnc(C)n1-2 [I-140]	< 500	< 500	–	–	< 500	< 500	–	–
Cc1sc2c(c1C)C(c1ccc(C=C3CC4(CCCN(c5ccc(C(=O)NC6CCC(Oc7ccc(C#N)c(Cl)c7)CC6)nn5)C4)C3)cc1)=N[C@@H](Cc1ncco1)c1nnc(C)n1-2 (stereo partly drawn) [I-142, N-[4-(3-chloro-4-cyano-phenoxy)cyclohexyl]-6-[2-[[4-[(9S)-4,5,13-trimethyl-9-(oxazol-2-ylmethyl)-3-thia-1,8,11,12-tetrazatricyclo[8.3.0.02,6]trideca-2(6),4,7,10,12-pentaen-7-yl]phenyl]methylene]-6-azaspiro[3.5]nonan-6-yl]pyridazine-3-carboxamide]	< 500	< 500	–	–	< 500	< 500	–	–
Cc1sc2c(c1C)C(c1ccc(C3CC3C3CC4(CCN(c5ccc(C(=O)N[C@H]6CC[C@H](Oc7ccc(C#N)c(Cl)c7)CC6)nn5)CC4)C3)cc1)=N[C@@H](Cc1ncco1)c1nnc(C)n1-2 (stereo partly shown) [I-200]	< 500	< 500	–	–	< 500	< 500	–	–
Cc1sc2c(c1C)C(c1ccc([C@@H]3C[C@H]3C3CC4(CCN(c5ccc(C(=O)N[C@H]6CC[C@H](Oc7ccc(C#N)c(Cl)c7)CC6)nn5)CC4)C3)cc1)=N[C@@H](Cc1ncco1)c1nnc(C)n1-2 [I-201]	< 500	< 500	–	–	> 3000	< 500	–	–
Cc1sc2c(c1C)C(c1ccc([C@H]3C[C@@H]3CC3CCCN(c4ccc(C(=O)N[C@H]5CC[C@H](Oc6ccc(C#N)c(Cl)c6)CC5)nn4)C3)cc1)=N[C@@H](Cc1ncco1)c1nnc(C)n1-2 (stereo partly shown) [I-202]	< 500	< 500	–	–	< 500	< 500	–	–
Cc1sc2c(c1C)C(c1ccc(OC[C@H]3C[C@]4(CCCN(c5ccc(C(=O)N[C@H]6CC[C@H](Oc7ccc(C#N)c(Cl)c7)CC6)nn5)C4)C3)cc1)=N[C@@H](Cc1ncco1)c1nnc(C)n1-2 [I-206]	–	–	> 3000	> 3000	–	–	> 3000	500 to 1500
Cc1sc2c(c1C)C(c1ccc(CC[C@H]3C[C@@]4(CCCN(c5ccc(C(=O)N[C@H]6CC[C@H](Oc7ccc(C#N)c(Cl)c7)CC6)nn5)C4)C3)nc1)=N[C@@H](Cc1ncco1)c1nnc(C)n1-2 [I-207]	< 500	< 500	–	–	< 500	< 500	–	–
Cc1sc2c(c1C)C(c1ccc(C3CN(C4CCN(c5ccc(C(=O)N[C@H]6CC[C@H](Oc7ccc(C#N)c(Cl)c7)CC6)nn5)C4)C3)cc1)=N[C@@H](Cc1ncco1)c1nnc(C)n1-2 (stereo partly shown) [I-209]	< 500	< 500	–	–	< 500	< 500	–	–
Cc1sc2c(c1C)C(c1ccc(C[C@H]3C[C@@]4(CN(c5ccc(C(=O)N[C@H]6CC[C@H](Oc7ccc(C#N)c(Cl)c7)CC6)nn5)CCO4)C3)cc1)=N[C@@H](Cc1ncco1)c1nnc(C)n1-2 [I-210]	> 3000	500 to 1500	–	–	> 3000	> 3000	–	–
Cc1sc2c(c1C)C(c1ccc(C[C@H]3C[C@]4(CN(c5ccc(C(=O)N[C@H]6CC[C@H](Oc7ccc(C#N)c(Cl)c7)CC6)nn5)CCO4)C3)cc1)=N[C@@H](Cc1ncco1)c1nnc(C)n1-2 [I-211]	< 500	< 500	–	–	< 500	< 500	–	–
Cc1sc2c(c1C)C(c1ccc(C3CN(C4CCN(c5ccc(C(=O)N[C@H]6CC[C@H](Oc7ccc(C#N)c(Cl)c7)CC6)nn5)CC4)C3)cc1)=N[C@@H](Cc1ncco1)c1nnc(C)n1-2 [I-212]	< 500	< 500	–	–	< 500	< 500	–	–

Further lines, with some results ahead:

GI50 ([2]; Homo sapiens, VCaP, 72 h) [nM]	GI50 ([4]; Homo sapiens, T47D, 72 h) [nM]	GI50 [2] [nM]	GI50 [4] [nM]	SMILES	GI50 ([1]; 72 h) [nM]	GI50 ([3]; 72 h) [nM]	GI50 [1] [nM]	GI50 [3] [nM]
> 3000	> 3000	–	–	Cc1sc2c(c1C)C(c1ccc(CC[C@H]3CC[C@@]4(CCCN(c5ccc(C(=O)N[C@H]6CC[C@H](Oc7ccc(C#N)c(Cl)c7)CC6)nn5)C4)C3)cc1)=N[C@@H](Cc1ncco1)c1nnc(C)n1-2 [I-213]	> 3000	> 3000	–	–
> 3000	> 3000	–	–	Cc1sc2c(c1C)C(c1ccc(CC[C@@H]3CC[C@@]4(CCCN(c5ccc(C(=O)N[C@H]6CC[C@H](Oc7ccc(C#N)c(Cl)c7)CC6)nn5)C4)C3)cc1)=N[C@@H](Cc1ncco1)c1nnc(C)n1-2 [I-214]	> 3000	> 3000	–	–
< 500	< 500	–	–	Cc1sc2c(c1C)C(c1ccc(CC[C@H]3CC[C@@]4(CCCN(c5ccc(C(=O)N[C@H]6CC[C@H](Oc7ccc(C#N)c(Cl)c7)CC6)nn5)C4)C3)cc1)=N[C@H](Cc1ncco1)c1nnc(C)n1-2 [I-215]	< 500	< 500	–	–
< 500	< 500	–	–	Cc1sc2c(c1C)C(c1ccc(CC[C@@H]3CC[C@@]4(CCCN(c5ccc(C(=O)N[C@H]6CC[C@H](Oc7ccc(C#N)c(Cl)c7)CC6)nn5)C4)C3)cc1)=N[C@H](Cc1ncco1)c1nnc(C)n1-2 [I-216]	< 500	< 500	–	–
1500 to 3000	> 3000	–	–	Cc1sc2c(c1C)C(c1ccc(O[C@H]3CCCN(c4ccc(C(=O)N[C@H]5CC[C@H](Oc6ccc(C#N)c(Cl)c6)CC5)nn4)C3)cc1)=N[C@@H](Cc1ncco1)c1nnc(C)n1-2 [I-217]	< 500	< 500	–	–
< 500	500 to 1500	–	–	Cc1sc2c(c1C)C(c1ccc(OC[C@@H]3CCCN(c4ccc(C(=O)N[C@H]5CC[C@H](Oc6ccc(C#N)c(Cl)c6)CC5)nn4)C3)cc1)=N[C@@H](Cc1ncco1)c1nnc(C)n1-2 [I-218]	< 500	< 500	–	–
500 to 1500	1500 to 3000	–	–	Cc1sc2c(c1C)C(c1ccc(OC[C@H]3CCCN(c4ccc(C(=O)N[C@H]5CC[C@H](Oc6ccc(C#N)c(Cl)c6)CC5)nn4)C3)cc1)=N[C@@H](Cc1ncco1)c1nnc(C)n1-2 [I-219]	1500 to 3000	< 500	–	–
500 to 1500	500 to 1500	–	–	Cc1sc2c(c1C)C(c1ccc(O[C@H]3C[C@@]4(CCCN(c5ccc(C(=O)N[C@H]6CC[C@H](Oc7ccc(C#N)c(Cl)c7)CC6)nn5)C4)C3)nc1)=N[C@@H](Cc1ncco1)c1nnc(C)n1-2 [I-220]	> 3000	< 500	–	–
> 3000	> 3000	–	–	Cc1sc2c(c1C)C(c1ccc(O[C@H]3C[C@@]4(CCCN(c5ccc(C(=O)N[C@H]6CC[C@H](Oc7ccc(C#N)c(Cl)c7)CC6)nn5)C4)C3)nc1)=N[C@H](Cc1ncco1)c1nnc(C)n1-2 [I-221]	> 3000	< 500	–	–
< 500	< 500	–	–	Cc1sc2c(c1C)C(c1ccc(CCN3CCOC4(CCN(c5ccc(C(=O)N[C@H]6CC[C@H](Oc7ccc(C#N)c(Cl)c7)CC6)nn5)CC4)C3)cc1)=N[C@@H](Cc1ncco1)c1nnc(C)n1-2 [I-222]	500 to 1500	< 500	–	–
< 500	500 to 1500	–	–	Cc1sc2c(c1C)C(c1ccc(OC3CC4(CCN(c5ccc(C(=O)N[C@H]6CC[C@H](Oc7ccc(C#N)c(Cl)c7)CC6)nn5)CC4)C3)nc1)=N[C@@H](Cc1ncco1)c1nnc(C)n1-2 [I-223]	500 to 1500	< 500	–	–
< 500	< 500	–	–	Cc1sc2c(c1C)C(c1ccc(O[C@@H]3CCCN(c4ccc(C(=O)N[C@H]5CC[C@H](Oc6ccc(C#N)c(Cl)c6)CC5)nn4)C3)cc1)=N[C@@H](Cc1ncco1)c1nnc(C)n1-2 [I-224]	> 3000	< 500	–	–
< 500	< 500	–	–	Cc1sc2c(c1C)C(c1ccc(C3CCC(N4CCCN(c5ccc(C(=O)N[C@H]6CC[C@H](Oc7ccc(C#N)c(Cl)c7)CC6)nn5)CC4)CC3)cc1)=N[C@H](Cc1ncco1)c1nnc(C)n1-2 (stereo partly shown) [I-225]	< 500	< 500	–	–
> 3000	500 to 1500	–	–	Cc1sc2c(c1C)C(c1ccc(OC3CC4(CCN(c5ccc(C(=O)N[C@H]6CC[C@H](Oc7ccc(C#N)c(Cl)c7)CC6)nn5)CC4)C3)cc1)=N[C@@](C)(C(C)c1ncco1)c1nnc(C)n1-2 (stereo partly shown) [I-226]	> 3000	< 500	–	–
< 500	> 3000	–	–	Cc1sc2c(c1C)C(c1ccc(C#CC3CC4(C3)CN(c3ccc(C(=O)N[C@H]5CC[C@H](Oc6ccc(C#N)c(Cl)c6)CC5)nn3)C4)cc1)=N[C@H](Cc1ncco1)c1nnc(C)n1-2 [I-227]	> 3000	< 500	–	–
